Experimental data: US20220339134A1, “VERY-LONG-CHAIN POLYUNSATURATED FATTY ACIDS, ELOVANOID HYDROXYLATED DERIVATIVES, AND METHODS OF USE” (Board of Supervisors of Louisiana State University and …, priority 2019, published 2022)

Key:
[1] = system: hypothalamus, SAT and VAT; assay: Adiponectin levels in diabetic hypothalamus and adipose tissue; parameters: species or system db/db mice
[2] = methyl ester or sodium salt; administered 1 hour following 2 hours of ischemia; cited from earlier work
primary human RPE cells = assay: Primary human RPE cells treated with 10 μM OAβ +/- ELVs (SA-β-Gal staining, qPCR); format: cell-based; conditions: 3 days qPCR, 7 days staining
Protocol: (A) In vitro experimental design: Primary human RPE cells were treated with 10 μM OAβ+/−ELVs. After 3 days, RNA was isolated and qPCR analyzed. After 7 days, cells were subjected to β-Galactosidase staining. (B) Live cell images under bright field microscopy after 7 days. (C) β-Gal staining+/−ELVs. Quantitation of % for the β-Gal positive cells. ELVs decreased positive senescent cells. (D) Gene transcription of senescence, AMD-related and autophagy genes after OAβ (1-42) exposure+/−ELVs. (*P <0.05, student t-test).
OAβ toxicity is counteracted by ELVs in primary hRPE. (A) Primary hRPE cells were treated with 10 μM OAβ with or without adding ELVs. After 3 days, the total RNA was isolated and q-PCR analyzed. After 7 days, cells were subjected to β-Galactosidase staining. (B) Live cell images of primary hRPE under bright field microscope imaging after 7 days. (C) β-Galactosidase staining of primary hRPE, +/−ELVs. Quantitation of % for the β-Gal positive cells. ELVs decreased positive senescent cells. […]
Cells were visualized using SA-β-Gal staining kit (Cat 9860, Cell Signaling Technology, MA, USA). […] Pictures were taken under brightfield microscope (Nikon Eclipse TS100) 200× magnification after the development of blue color, and cells counted in 10 different random fields per well. […]

hypothalamic neurons = assay: Fluoro-Jade B staining of organotypic hypothalamus slices; format: cell-based, db/db mice; conditions: 500 nM, 48 h incubation; db/db hypothalamus slices
Protocol: Fluoro-Jade b (F-Jb) stains degenerating neurons. […] 48 h incubation with 500 nM ELV34 elicited neuroprotection that was reflected in the decrease of F-Jb signal (a).

For CC/C=C\C[C@H](O)\C=C/C=C/C=C/[C@H](O)C/C=C\C/C=C\CCCCCCCCCCCCCCC(=O)O [ELV-N-34], the “adiponectin in subcutaneous (SAT) and visceral adipose tissue (VAT)” value [1] was “Differential effect”, the “levels of Adiponectin” value ([1]; ELV34 treatment) was “increased” and the “adiponectin in diabetic hypothalamus” value ([1]; female and males) was “trend of increase”. For the same compound, the cell survival [2] was “promoted cell survival”, the infarct volumes [2] was “reduced infarct volumes” and the neurovascular unit disruption [2] was “diminished neurovascular unit disruption”. The “OAβ effects: RPE cell morphology, SASP (SA-β-Gal), senescence, AMD, MMP and autophagy gene expression” value (primary human RPE cells) was “reverted these effects” and the “F-Jb signal (degenerating neurons)” value (hypothalamic neurons) was “decrease”.
